From article PMC9937529, “Mechanism of activation and biased signaling in complement receptor C5aR1” (Cell Research, 2023)
Square brackets hold non-standard residues; d marks the D form. Peptide text beside a SMILES is read from it. Nva = CCC[C@H](N)C(=O)O

Assays:
C5aR1-WT = target: T1, C5aR1-WT (Homo sapiens, UniProt P21730); test: BRET assay measuring β-arrestin 2 recruitment; assay type: cell-based; details: C5aR1 wild type, HEK293, BRET, mean±SEM, n=3, Table S5, read-out: EC50, β-arrestin2 recruitment
T1 construct: expressed in transfected cells; host or cells: HEK293
T1 sequence (P21730 1-350): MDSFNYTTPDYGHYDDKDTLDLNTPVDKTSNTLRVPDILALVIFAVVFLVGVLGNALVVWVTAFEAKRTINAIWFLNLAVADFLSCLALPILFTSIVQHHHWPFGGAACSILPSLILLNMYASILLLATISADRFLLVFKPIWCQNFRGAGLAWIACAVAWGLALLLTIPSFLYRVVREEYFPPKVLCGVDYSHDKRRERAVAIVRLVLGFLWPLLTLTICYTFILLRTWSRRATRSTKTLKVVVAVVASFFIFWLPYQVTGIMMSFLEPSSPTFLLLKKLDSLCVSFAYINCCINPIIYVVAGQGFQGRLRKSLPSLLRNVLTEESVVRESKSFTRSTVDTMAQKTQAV
Procedure: Briefly, HEK293 cells were transiently transfected with C5aR1-Nluc and mVenus-β-arrestin 2 or C5aR2-mVenus and Nluc-β-arrestin 2 constructs using PEI transfection reagent (YEASEN, 40816ES02) according to the manufacturer’s instruction. At 24 h post transfection, the cells were gently detached and seeded (100,000/well) onto 96-well white plates in DMEM containing 5% FBS. On the next day, cells were washed once with Phosphate Buffered Saline (PBS) and incubated in HBSS containing 20 mM HEPES, pH 7.4, with coelenterazine h (5 μM, YEASEN, 40906ES02) for 1 h (37 °C, 5% CO2). […] We carried out the nonlinear regression (curve fit) dose-response function in GraphPad Prism 7 to yield the values of Emax and EC50.

C5aR1 wild type = target: T2, C5aR1 wild type (Homo sapiens, UniProt P21730); test: BRET-based Gαi1–γ2 dissociation assay (G protein signaling); assay type: cell-based; details: HEK293, Gi protein dissociation assay (Fig. S10a), ligand 10 min, mean±SEM, n=3
T2 construct: expressed in transfected cells; host or cells: HEK293
T2 sequence (P21730 1-350): T1 sequence (P21730 1-350)
Procedure: The activation of C5aR1 induced by ligands was measured through BRET-based Gαi1 dissociation from Gβ1γ2 as previously described.[60] HEK293 cells were plated in 6-well plates containing 600,000–800,000 cells per well and cultured 24 h at 37 °C in cell incubator. […] After transfection for 24 h, cells were harvested and dispensed into 96-well white plates and allowed to culture overnight. […] Next, prepared ligands were added into cells for 10 min and the second BRET signal was measured. […] Data were analyzed using a simulation dose-response in GraphPad Prism 7.

C5aR1 [1] = test: Bias calculation, Gi protein signaling vs β-arrestin 2 recruitment; assay type: cell-based, human; details: from curve fit parameters, endogenous agonist C5a as reference; β value > 0 Gi protein-biased, < 0 β-arrestin-biased
Procedure: The measurement of cAMP inhibition and β-arrestin recruitment in our study was performed as described. Besides, the parameters used below were based on the curve fits of the combined datasets described above.

C5aR1 [2] = test: Biased antagonism in competition with C5a (Gi-protein signaling vs β-arrestin 2 recruitment); assay type: cell-based, human; details: HEK293
Procedure: To measure cAMP inhibition effects on the forskolin-induced cAMP accumulation of C5aR1, the GloSensor cAMP assay (Promega) was performed as described in the previous study.[59] Briefly, Flag-tagged wild-type human C5aR1 was co-expressed with GloSensor plasmid in HEK293 cells in 6-well culture plates. After at least 24 h, transfected cells were harvested and suspended in assay buffer Hank’s Balanced Salt Solution (HBSS) containing 10 mM HEPES, pH 7.4, with an additional 3% v/v dilution of the D-Luciferin-Potassium Salt (YEASEN, 40902ES01). […] Finally, the luminescence signals were counted on the Synergy H1 microplate reader (BioTek). […]
The C5a-mediated β-arrestin 2 recruitment to C5aR1 and C5aR2, respectively, was measured using BRET-based assay as previously described.[36],[61],[62] […] The baseline BRET light emissions (460–485 nm and 520–545 nm) were monitored by the Synergy H1 microplate reader (BioTek). After the incubation of different diluted concentrations of agonist with or without antagonist for 10 min, the second BRET light emissions were measured and the ligand-induced BRET ratio was calculated by subtracting the acceptor (mVenus, 520–545 nm) over donor (Nluc, 460–485 nm) emission ratio of the vehicle-treated wells from that of the ligand-treated wells. […]

EC50 (C5aR1-WT) [nM] | EC50 (C5aR1 wild type) [nM] | Compound | Signaling bias (bias factor, in words) (C5aR1 [1]) | Biased antagonism (in words) (C5aR1 [2])
155000 ± 59000 | 455 ± 34.9 | CC(=O)N[C@@H](Cc1ccccc1)C(=O)N[C@@H](CCCCN)C(=O)N1CCC[C@H]1C(=O)N[C@@H](CC(C)C)C(=O)N[C@@H](C)C(=O)N[C@@H](Cc1ccccc1)C(=O)N[C@H](C)C(=O)N[C@@H](CCCNC(=N)N)C(=O)O [BM213P6-F] (Ac-FKPLAF[dA]R-OH) |  | 
2590 ± 110 | 35.5 ± 4.23 | CC(=O)N[C@@H](Cc1ccccc1)C(=O)N[C@@H](CCCCN)C(=O)N1CCC[C@H]1C(=O)N[C@@H](CC(C)C)C(=O)N[C@@H](C)C(=O)N[C@H](C(=O)N[C@H](C)C(=O)N[C@@H](CCCNC(=N)N)C(=O)O)C(C)C [BM213P6-V] (Ac-FKPLAV[dA]R-OH) |  | 
 |  | CC(=O)N[C@@H](Cc1ccccc1)C(=O)N[C@@H](CCCCN)C(=O)N1CCC[C@H]1C(=O)N[C@@H](CC(C)C)C(=O)N[C@@H](C)C(=O)N[C@@H](CC(C)C)C(=O)N[C@H](C)C(=O)N[C@@H](CCCNC(=N)N)C(=O)O [BM213P6-L] (Ac-FKPLAL[dA]R-OH; C-terminus assumed) | increased β-arrestin-biased features compared to BM213 | 
 |  | CCC[C@H](NC(=O)[C@H](C)NC(=O)[C@H](CC(C)C)NC(=O)[C@@H]1CCCN1C(=O)[C@H](CCCCN)NC(=O)[C@H](Cc1ccccc1)NC(C)=O)C(=O)N[C@H](C)C(=O)N[C@@H](CCCNC(=N)N)C(=O)O [BM213P6-Nva] (Ac-FKPLA[Nva][dA]R-OH) | increased β-arrestin-biased features compared to BM213 | 
 |  | Cc1ccc(NC(=O)[C@H]2CCCN(C(=O)c3c(C)cccc3F)[C@H]2c2ccc(NC3CCCC3)cc2)cc1C(F)(F)F [avacopan] |  | biased inhibition toward β-arrestin recruitment over G protein coupling
 |  | PMX53 |  | the opposite
